{"source": "patent US8617611B2", "about": "“Polymeric compositions comprising therapeutic agents in crystalline phases, and methods of forming the same” (Cordis Corporation, priority 2005, dated 2013)", "origin": "cited, not measured here"}
{"smiles": "COc1ccc(/C=C/C(=O)Nc2ccccc2C(=O)O)cc1OC", "note": "[Tranilast]", "values": [{"measurement": "solubility in dimethyl sulfoxide (DMSO)", "setting": "DMSO", "result": "soluble"}, {"measurement": "solubility in other solvents such as methylene chloride", "setting": "methylene chloride", "result": "not soluble"}]}
